From patent US20240199576A1, “NOVEL CYCLOPENTA[C]PYRROL NEGATIVE ALLOSTERIC MODULATORS OF NR2B” (Novartis AG, priority 2021, published 2024)

Experiments:
[1] = biological target: hERG (Homo sapiens (Human), UniProt Q12809); assay: hERG Qpatch assay; assay type: cell-based; settings: hERG expressing CHO-K1 cells, automated patch clamp, tail current
Experimental: This assay was performed by the method described in Skepper et al., J. Med. Chem. 2020, 63, 7773-7816:
hERG expressing cell lines were produced in-house at Novartis using CHO-K1 T-Rex inducible plasmid system (Invitrogen) as described previously (Cao et al., Assay Drug Dev. Technol. 2010, 8, 766-780). Cell lines were maintained in Ham's F12 nutrient mixture containing 10% FBS, blasticidin ([…]; InvivoGen), hygromycin B ([…]; InvivoGen), Zeocin ([…], Invitrogen), and neomycin ([…], Invitrogen) using SelecT automated cell culture system (TAP Biosystems, Cambridge, U.K.). hERG and hCav1.2 channels expression was induced with tetracycline (0.25-1 μg/mL, Invitrogen) at least 24 h prior to the experiment.
hERG currents were recorded using the Qpatch automated patch clamp systems (Sophion Bioscience Inc., North Brunswick, NJ) in the whole (single) cell configuration. hERG expressing CHO-K1 cells were harvested with Detachin (Genlantis) and stored in the modified serum-free SFM-2 media (Life Technologies) at room temperature. The extracellular solution contained (in mM) NaCl (145), KCl (4), MgCl2 (1), CaCl2 (2), and HEPES (10), pH 7.4, with NaOH. The intracellular solution contained KCl (135), MgCl2 (1.75), CaCl2 (5.4), EGTA (10), K2-ATP (4), and HEPES (10), pH 7.2, with KOH. After whole cell configuration was achieved, the cell was held at −90 mV, and a 0.1 s pulse to −50 mV was delivered to measure the leaking current, which was subtracted from the tail current online. Then the cell was depolarized to +20 mV for 4 s (prepulse), followed by a 4 s test pulse to −50 mV to reveal the hERG tail current. To monitor changes in the current amplitude, this voltage protocol was repeatedly applied every 20 s. Test compounds were first diluted in DMSO for six dose-response experiments and then dissolved in the extracellular solution using Freedom EVO liquid handling robotic system (Tecan, Männedorf, Switzerland). The final DMSO concentration in samples was 0.3% v/v. Amitriptyline (Sigma) was tested as a positive control. Data were analyzed using in-house developed MatLab-based program (MathWorks, Natick, MA).

[2] = biological target: NR2B (Rattus norvegicus (Rat), UniProt Q00960); assay: NR2B rat cortical neuron calcium influx assay; assay type: cell-based; settings: rat cortical neurons, glutamate and glycine stimulated calcium influx, 2 hours compound incubation
Chain of NR2B (Q00960 27-1482, other chains not shown): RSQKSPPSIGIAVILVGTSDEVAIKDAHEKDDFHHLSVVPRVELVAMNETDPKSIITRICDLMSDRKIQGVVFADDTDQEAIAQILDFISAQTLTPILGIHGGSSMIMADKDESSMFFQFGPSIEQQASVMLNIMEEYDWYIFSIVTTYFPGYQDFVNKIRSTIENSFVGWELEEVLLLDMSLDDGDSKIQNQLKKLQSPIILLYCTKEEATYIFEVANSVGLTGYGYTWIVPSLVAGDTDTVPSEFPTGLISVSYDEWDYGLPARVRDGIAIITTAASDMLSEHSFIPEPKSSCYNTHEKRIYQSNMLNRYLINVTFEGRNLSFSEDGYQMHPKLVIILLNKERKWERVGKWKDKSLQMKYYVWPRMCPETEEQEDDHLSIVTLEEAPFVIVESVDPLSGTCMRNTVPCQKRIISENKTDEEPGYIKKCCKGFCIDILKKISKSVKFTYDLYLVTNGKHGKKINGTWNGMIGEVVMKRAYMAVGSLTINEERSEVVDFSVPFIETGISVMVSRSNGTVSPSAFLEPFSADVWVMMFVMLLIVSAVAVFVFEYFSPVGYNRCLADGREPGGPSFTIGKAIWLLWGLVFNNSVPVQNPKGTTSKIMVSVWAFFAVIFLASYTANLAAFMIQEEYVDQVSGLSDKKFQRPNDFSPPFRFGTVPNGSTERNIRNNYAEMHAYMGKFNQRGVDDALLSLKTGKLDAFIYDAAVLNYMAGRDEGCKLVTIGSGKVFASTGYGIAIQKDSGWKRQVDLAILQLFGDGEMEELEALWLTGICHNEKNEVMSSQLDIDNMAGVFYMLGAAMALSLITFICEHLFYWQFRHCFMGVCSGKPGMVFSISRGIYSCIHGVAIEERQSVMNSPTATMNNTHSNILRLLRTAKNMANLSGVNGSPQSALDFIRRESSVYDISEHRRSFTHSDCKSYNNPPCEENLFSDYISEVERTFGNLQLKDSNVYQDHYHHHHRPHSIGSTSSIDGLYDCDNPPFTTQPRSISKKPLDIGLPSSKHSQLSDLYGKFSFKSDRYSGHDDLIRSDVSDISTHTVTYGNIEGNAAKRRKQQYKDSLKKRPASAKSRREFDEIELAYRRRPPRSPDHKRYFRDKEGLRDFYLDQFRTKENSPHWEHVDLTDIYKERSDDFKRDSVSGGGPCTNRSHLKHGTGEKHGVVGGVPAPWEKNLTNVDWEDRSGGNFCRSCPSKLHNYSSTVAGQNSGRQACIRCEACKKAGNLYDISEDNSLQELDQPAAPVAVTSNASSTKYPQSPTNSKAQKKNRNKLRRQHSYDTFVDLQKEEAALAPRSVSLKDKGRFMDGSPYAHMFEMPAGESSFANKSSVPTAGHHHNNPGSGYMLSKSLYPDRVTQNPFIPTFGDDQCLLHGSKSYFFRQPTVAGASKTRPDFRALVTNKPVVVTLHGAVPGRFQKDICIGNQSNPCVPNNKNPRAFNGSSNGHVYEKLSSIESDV
Description: Example 1: NR2B Rat Cortical Neuron Calcium Influx Assay Protocol
Embryonic day 18 timed pregnant Sprague Dawley rats were euthanized according to Institutional Animal Care and Use Committee (IACUC) protocol. After cutting medially through the skin and exposing the uterus and embryos, fetuses were removed and placed in cold Hibernate medium. Each embryo's brain was extracted and cerebral cortices were isolated by removing the midbrain and meninges. The dissected cortices were then dissociated into the neurons using papain dissociation system (Worthington Biochemical Corporation) according the manufacturer's protocol.
Dissociated neurons were counted and plated into 384-well poly-D-lysine coated plates (Corning® BioCoat™) at a density of 20,000 cells/well in 30 μL of Neurobasal/B27 complete medium. Neurons were cultured at 37° C. for 2 days. On the assay day, medium was removed and cells were incubated with 20 μL/well of calcium dye (Calcium 6 Assay Kit, Molecular Devices) suspended in HBSS with 1.8 mM Ca^2+ (Ca-HBSS) according to the manufacturer's instruction.
Compounds of interest from 10 mM stock were serially diluted into 3× of desired concentrations in 1.8 mM Ca-HBSS, and 10 μL were added to the wells. Compound and the neurons were incubated at 37° C. for 2 hours in the dark.
On FDSS7000EX (Hamamatsu Photonics), a fluorescence measuring instrument, 10 μL of 4× ligand solution containing glutamate and glycine made in 1.8 mM Ca^2+-HBSS were added to each well. The fluorescent signals were collected before and after the addition of ligands for a total of 2 minutes. The data were converted to a ratio of the peak fluorescence to the fluorescence at the beginning of the measurement.
Each data point was measured in duplicates. Dose response curves were used to identify IC50 and maximal inhibition values. IC50 represents the concentration in μM of compound at which there is a half-maximal compound effect. Maximal inhibition of a compound is expressed as a percent of the highest inhibition of activity over a no compound control.

Chain of hERG (Q12809 whole entry): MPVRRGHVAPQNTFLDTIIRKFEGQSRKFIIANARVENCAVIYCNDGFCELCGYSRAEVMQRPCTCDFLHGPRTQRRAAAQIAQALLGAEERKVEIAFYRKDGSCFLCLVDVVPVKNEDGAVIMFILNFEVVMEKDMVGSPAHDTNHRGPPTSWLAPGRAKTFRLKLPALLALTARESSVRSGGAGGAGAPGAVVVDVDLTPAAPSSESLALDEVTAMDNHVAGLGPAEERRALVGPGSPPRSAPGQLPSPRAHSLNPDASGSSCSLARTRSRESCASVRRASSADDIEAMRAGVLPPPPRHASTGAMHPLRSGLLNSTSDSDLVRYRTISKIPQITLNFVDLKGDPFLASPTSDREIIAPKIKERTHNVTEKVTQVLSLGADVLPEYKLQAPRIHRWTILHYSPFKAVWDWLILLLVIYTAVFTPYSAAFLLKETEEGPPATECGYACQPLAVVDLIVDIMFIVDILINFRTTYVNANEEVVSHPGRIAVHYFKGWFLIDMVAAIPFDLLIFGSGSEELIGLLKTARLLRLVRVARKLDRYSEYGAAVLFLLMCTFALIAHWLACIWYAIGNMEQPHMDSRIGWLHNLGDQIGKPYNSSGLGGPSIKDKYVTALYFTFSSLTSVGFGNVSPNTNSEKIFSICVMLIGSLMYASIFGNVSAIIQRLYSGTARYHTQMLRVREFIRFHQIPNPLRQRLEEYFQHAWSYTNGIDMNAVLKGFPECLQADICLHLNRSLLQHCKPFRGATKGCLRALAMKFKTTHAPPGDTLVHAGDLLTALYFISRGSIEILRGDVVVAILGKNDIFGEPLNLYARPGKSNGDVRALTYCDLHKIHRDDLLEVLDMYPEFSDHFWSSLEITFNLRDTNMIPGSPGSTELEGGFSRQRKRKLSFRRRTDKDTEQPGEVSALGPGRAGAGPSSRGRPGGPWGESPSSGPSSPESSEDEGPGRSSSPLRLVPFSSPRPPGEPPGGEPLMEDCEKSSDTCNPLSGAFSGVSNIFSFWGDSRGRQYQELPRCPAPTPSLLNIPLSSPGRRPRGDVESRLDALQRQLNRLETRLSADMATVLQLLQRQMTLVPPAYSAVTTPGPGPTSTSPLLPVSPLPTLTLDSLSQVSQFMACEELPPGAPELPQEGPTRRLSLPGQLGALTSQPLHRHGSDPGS

Row | SMILES | IC50 [2] [nM] | IC50 [1] [nM]
1 | Oc1c(F)cc(C(O)CN2C[C@H]3C[C@H](Oc4ccccc4)C[C@H]3C2)cc1F (mixture of isomers) [Mixture of two isomers at benzylic position, reference compound] |  | 2800
2 | Oc1ccc(CCN2C[C@H]3C[C@H](Oc4ccc(F)cc4F)C[C@@]3(O)C2)nc1 [Example 19] | 18 | 
3 | Oc1ccc(C(O)CN2C[C@H]3C[C@H](Oc4ccccc4)C[C@H]3C2)nc1 (single isomer, unassigned) [Table 3 of WO 2016/049165 (isomer 2), reference compound] |  | 2700
4 | Oc1ccc(C(O)CN2C[C@H]3C[C@H](Oc4ccccc4F)C[C@@]3(O)C2)nc1 (single isomer, unassigned) [Example 1B] | 0.74 | 14000
5 | Oc1ccc(CCN2C[C@H]3C[C@H](Oc4cccnc4F)C[C@@]3(O)C2)nc1 [Example 20] | 820 | 
6 | Oc1ccc(C(O)CN2C[C@H]3C[C@H](Oc4ccccc4F)C[C@@]3(O)C2)nc1 (single isomer, unassigned) [Example 1C] | 1.1 | 22000
7 | Oc1ccc(C(O)CN2C[C@H]3C[C@H](Oc4ccccc4)C[C@H]3C2)nc1 (single isomer, unassigned) [Table 3 from WO 2016/049165 (isomer 1), reference compound] |  | 2000

The next lines start with results.

Row | IC50 [2] [nM] | SMILES | IC50 [1] [nM]
8 | 28 | Oc1c(F)cc(C(O)CN2C[C@H]3C[C@H](Oc4ccccc4)[C@H](O)[C@@]3(O)C2)cc1F (some centres unmarked) [Example 5B] | 
9 | 11 | Oc1ccc(C(O)CN2C[C@H]3C[C@H](Oc4ccccc4F)[C@H](O)[C@@]3(O)C2)nc1 (single isomer, unassigned) [Example 2A] | 
10 | 2.2 | Oc1ccc(C(O)CN2C[C@H]3C[C@H](Oc4ccccc4F)[C@H](O)[C@@]3(O)C2)nc1 (single isomer, unassigned) [Example 2B] | 
11 | 6 | Oc1c(F)cc([C@H](O)CN2C[C@H]3C[C@H](Oc4ccccc4)C[C@@]3(O)C2)cc1F [Example 10D, (3aS,5S,6aR)-2-((S)-2-(3,5-difluoro-4-hydroxyphenyl)-2-hydroxyethyl)-5-phenoxyhexahydrocyclopenta[c]pyrrol-3a(1H)-ol] | 25000
12 | 14 | Oc1c(F)cc([C@@H](O)CN2C[C@H]3C[C@H](Oc4ccccc4)C[C@@]3(O)C2)cc1F [Example 10C] | 22000
13 | 2.4 | Oc1ccc(C(O)CN2C[C@H]3C[C@H](Oc4ccccc4)C[C@@]3(O)C2)nc1 (single isomer, unassigned) [Example 7C] | 28000
14 | 900 | Oc1c(F)cc(C(O)CN2C[C@@H]3C[C@@H](Oc4ccccc4)[C@@H](O)[C@]3(O)C2)cc1F (single isomer, unassigned) [Example 5C] | 
15 | 950 | Oc1ccc(C(O)CN2C[C@@H]3C[C@@H](Oc4ccccc4F)[C@@H](O)[C@]3(O)C2)nc1 (single isomer, unassigned) [Example 2D] | 
16 | 24 | Oc1ccc(C(O)CN2C[C@H]3C[C@H](Oc4ccccc4)[C@H](O)[C@@]3(O)C2)nc1F (some centres unmarked) [Example 3D] | 
17 | > 10000 | Oc1ccc(C(O)CN2C[C@@H]3C[C@@H](Oc4ccccc4)[C@@H](O)[C@]3(O)C2)nc1Cl (some centres unmarked) [Example 4A] | 
18 | 770 | Oc1ccc(C(O)CN2C[C@@H]3C[C@@H](Oc4ccccc4F)[C@@H](O)[C@]3(O)C2)nc1 (single isomer, unassigned) [Example 2C] | 
19 | > 10000 | Oc1ccc(C(O)CN2C[C@@H]3C[C@@H](Oc4ccccc4)[C@@H](O)[C@]3(O)C2)nc1F (some centres unmarked) [Example 3A] | 
20 | 31 | Oc1ccc(C(O)CN2C[C@H]3C[C@H](Oc4ccccc4)[C@H](O)[C@@]3(O)C2)nc1Cl (single isomer, unassigned) [Example 4C] | 
21 | 35 | Oc1ccc(C(O)CN2C[C@H]3C[C@H](Oc4ccccc4)[C@H](O)[C@@]3(O)C2)nc1Cl (single isomer, unassigned) [Example 4D] | 
22 | 3700 | Oc1c(F)cc(C(O)CN2C[C@@H]3C[C@@H](Oc4ccccc4)[C@@H](O)[C@]3(O)C2)cc1F (single isomer, unassigned) [Example 5D] | 
23 | 3.2 | Oc1ccc(C(O)CN2C[C@H]3C[C@H](Oc4ccccc4)C[C@@]3(O)C2)nc1 (single isomer, unassigned) [Example 7D] | 19000
